Assay results published in patent publication US6737383B1, “Herbicidal oxadiazolidines” (priority 1999, dated 2004).

What was measured:
[1] = test system: crabgrass; assay: Test B pre/postemergence crabgrass; format: in vivo, Digitaria sanguinalis
How it was run: (§1)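 Response is a visual 0-to-10 score relative to untreated plants, where 0 means no effect and 10 means complete control, taken twelve to sixteen days after application. Treatments went onto soil at planting and onto foliage of 1- to 4-leaf plants, using a surfactant-containing non-phytotoxic solvent.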

[2] = test system: purple nutsedge; assay: Test B pre/postemergence purple nutsedge; format: in vivo, Cyperus rotundus
How it was run: as §1

[3] = test system: rape; assay: Test B pre/postemergence rape; format: in vivo, Brassica napus
How it was run: as §1

[4] = test system: bamyardgrass; assay: Test B flood test barnyardgrass; format: in vivo, Echinochloa crus-galli
How it was run: (§2)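 Flood test on plants grown to the 2-leaf stage; treated plants kept in greenhouse twelve to sixteen days, then visually rated against controls on a 0 (no effect) to 10 (complete control) scale.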

[5] = test system: wild oat; assay: Test B pre/postemergence wild oat; format: in vivo, Avena fatua
How it was run: as §1

[6] = test system: sugar beet; assay: Test B pre/postemergence sugar beet; format: in vivo, Beta vulgaris
How it was run: as §1

[7] = test system: pigweed; assay: Test B pre/postemergence pigweed; format: in vivo, Amaranthus retroflexus
How it was run: as §1

[8] = test system: surinam grass; assay: Test B pre/postemergence surinam grass; format: in vivo, Brachiaria decumbens
How it was run: as §1

[9] = test system: cocklebur; assay: Test B pre/postemergence cocklebur; format: in vivo, Xanthium strumarium
How it was run: as §1

[10] = test system: wheat; assay: Test B pre/postemergence wheat; format: in vivo, Triticum aestivum
How it was run: as §1

[11] = test system: morningglory; assay: Test B pre/postemergence morningglory; format: in vivo, Ipomoea hederacea
How it was run: as §1

[12] = test system: corn; assay: Test B pre/postemergence corn; format: in vivo, Zea mays
How it was run: as §1

[13] = test system: giant foxtail; assay: Test B pre/postemergence giant foxtail; format: in vivo, Setaria faberii
How it was run: as §1

[14] = test system: blackgrass; assay: Test B pre/postemergence blackgrass; format: in vivo, Alopecurus myosuroides
How it was run: as §1

[15] = test system: rice; assay: Test B flood test rice; format: in vivo, Oryza sativa
How it was run: as §2

[16] = test system: bedstraw; assay: Test B pre/postemergence bedstraw; format: in vivo, Galium aparine
How it was run: as §1

[17] = Preemergence, Rate 31 g/ha, visual rating, scale 0 to 10 (0 no effect, 10 complete control)
[18] = Preemergence, Rate 62 g/ha, scale of 0 to 10 where 0 is no effect and 10 is complete control
[19] = Preemergence, Rate 250 g/ha, scale of 0 to 10 where 0 is no effect and 10 is complete control
[20] = Rate 31 g/ha, Postemergence, scale 0 to 10
[21] = Rate 62 g/ha, Postemergence, scale 0 to 10, 0 no effect, 10 complete control
[22] = Rate 125 g/ha, Postemergence, scale of 0 to 10 where 0 is no effect and 10 is complete control
[23] = Rate 125 g/ha, Preemergence, scale of 0 to 10 where 0 is no effect and 10 is complete control
[24] = Rate 250 g/ha, Postemergence, scale of 0 to 10 where 0 is no effect and 10 is complete control
[25] = Rate 31 g/ha, Pre-emergence section (flood test species), scale 0 to 10
[26] = Rate 62 g/ha, headed Pre-emergence (flood test species), scale 0 to 10 (0 no effect, 10 complete control)
[27] = Rate 125 g/ha, Pre-emergence, flood test species, scale 0 to 10 where 0 is no effect and 10 is complete control
[28] = Rate 250 g/ha, Pre-emergence, flood-test species, scale 0 to 10, 0 is no effect, 10 is complete control

CC(Cl)=CCn1c(=O)on(C(=O)N(c2ccc(F)cc2)C(C)C)c1=O [Compound 285]
2: Sugarbeets plant response rating [6, 22] | Redroot pigweed plant response rating [7, 23] | B. signalgrass plant response rating [8, 18] | Blackgrass plant response rating [14, 22]
10: B. signalgrass plant response rating [8, 19] | Giant foxtail plant response rating [13, 19]
4: Crabgrass plant response rating [1, 18] | Blackgrass plant response rating [14, 23]
0: Crabgrass plant response rating [1, 17] | Crabgrass plant response rating [1, 20] | Crabgrass plant response rating [1, 21] | Nutsedge plant response rating [2, 17] | Nutsedge plant response rating [2, 18] | Nutsedge plant response rating [2, 19] | Nutsedge plant response rating [2, 20] | Nutsedge plant response rating [2, 21] | Nutsedge plant response rating [2, 22] | Nutsedge plant response rating [2, 23] | Plant response rating, Nutsedge [2, 24] | Rape plant response rating [3, 17] | Rape plant response rating [3, 18] | Rape plant response rating [3, 20] | Rape plant response rating [3, 21] | Rape plant response rating [3, 22] | Rape plant response rating [3, 23] | Plant response rating, Rape [3, 24] | Barnyardgrass plant response rating [4, 25] | Barnyardgrass plant response rating [4, 26] | Barnyardgrass plant response rating [4, 27] | Wild oats plant response rating [5, 17] | Wild oats plant response rating [5, 18] | Wild oats plant response rating [5, 21] | Wild oats plant response rating [5, 22] | Plant response rating, Wild oats [5, 24] | Sugarbeets plant response rating [6, 17] | Sugarbeets plant response rating [6, 18] | Sugarbeets plant response rating [6, 19] | Sugarbeets plant response rating [6, 21] | Sugarbeets plant response rating [6, 23] | Redroot pigweed plant response rating [7, 17] | Redroot pigweed plant response rating [7, 18] | Redroot pigweed plant response rating [7, 20] | Redroot pigweed plant response rating [7, 21] | Redroot pigweed plant response rating [7, 22] | Plant response rating, Redroot pigweed [7, 24] | B. signalgrass plant response rating [8, 17] | B. signalgrass plant response rating [8, 20] | B. signalgrass plant response rating [8, 21] | B. signalgrass plant response rating [8, 22] | Plant response rating, B. signalgrass [8, 24] | Cocklebur plant response rating [9, 17] | Cocklebur plant response rating [9, 18] | Cocklebur plant response rating [9, 19] | Cocklebur plant response rating [9, 20] | Cocklebur plant response rating [9, 21] | Cocklebur plant response rating [9, 22] | Cocklebur plant response rating [9, 23] | Plant response rating, Cocklebur [9, 24] | Wheat plant response rating [10, 17] | Wheat plant response rating [10, 18] | Wheat plant response rating [10, 19] | Wheat plant response rating [10, 21] | Wheat plant response rating [10, 22] | Wheat plant response rating [10, 23] | Plant response rating, Wheat [10, 24] | Morningglory plant response rating [11, 17] | Morningglory plant response rating [11, 18] | Morningglory plant response rating [11, 19] | Morningglory plant response rating [11, 23] | Corn plant response rating [12, 17] | Corn plant response rating [12, 18] | Corn plant response rating [12, 19] | Corn plant response rating [12, 20] | Corn plant response rating [12, 21] | Corn plant response rating [12, 22] | Corn plant response rating [12, 23] | Plant response rating, Corn [12, 24] | Giant foxtail plant response rating [13, 20] | Giant foxtail plant response rating [13, 21] | Giant foxtail plant response rating [13, 22] | Plant response rating, Giant foxtail [13, 24] | Blackgrass plant response rating [14, 17] | Blackgrass plant response rating [14, 18] | Blackgrass plant response rating [14, 20] | Blackgrass plant response rating [14, 21] | Rice plant response rating [15, 25] | Rice plant response rating [15, 26] | Rice plant response rating [15, 27] | Rice plant response rating [15, 28] | Bedstraw plant response rating [16, 17] | Bedstraw plant response rating [16, 18] | Bedstraw plant response rating [16, 20] | Bedstraw plant response rating [16, 21] | Bedstraw plant response rating [16, 23]
3: Crabgrass plant response rating [1, 22] | Rape plant response rating [3, 19] | Wild oats plant response rating [5, 19] | Plant response rating, Sugarbeets [6, 24] | Morningglory plant response rating [11, 21]
7: Plant response rating, Crabgrass [1, 24] | Barnyardgrass plant response rating [4, 28] | Giant foxtail plant response rating [13, 17] | Plant response rating, Blackgrass [14, 24] | Plant response rating, Bedstraw [16, 24]
5: Redroot pigweed plant response rating [7, 19] | B. signalgrass plant response rating [8, 23] | Morningglory plant response rating [11, 22] | Plant response rating, Morningglory [11, 24] | Blackgrass plant response rating [14, 19] | Bedstraw plant response rating [16, 22]
8: Crabgrass plant response rating [1, 19] | Crabgrass plant response rating [1, 23] | Giant foxtail plant response rating [13, 18] | Bedstraw plant response rating [16, 19]
1: Morningglory plant response rating [11, 20]
9: Giant foxtail plant response rating [13, 23]
